The values that follow come from patent US20230338572A1, “ANTI-TM4SF1 ANTIBODY-DRUG CONJUGATES COMPRISING CLEAVABLE LINKERS AND METHODS OF USING SAME” (Angiex, Inc., priority 2020, published 2023).

Broadly, the EC50 is the midpoint of the concentration-response curve. Low readings indicate higher potency in that assay, high ones lower potency in that assay.

The test system of data set [1] is HUVEC. Nature of the data set: In vitro cell proliferation inhibition assay (Example 10). Type of data set: cell-based, human. To be noted: free drug/linker payload, 5 days. As to the method: (§1) The effects of antibody drug-conjugates (drug to antibody ratio (DAR) varying from 0.9 to 3.5) containing a drug (maytansine or camptothecin) assessed in cultured mouse (MS1) and human (HUVEC, and MiaPaCa2) cells. The structures of the ADC tested are listed in Table 8 and shown in FIG. 19 (ADC) and FIG. 26 (ADC2, ADC3, and ADC4). Both Exemplary Antibody 1 and Exemplary Antibody 2 contain human IgG1 constant region with YTEC mutation. Cells were incubated for 5 days with the antibody drug conjugate before assessing cell viability on day 5.
(§2) In this experiment, different payloads were respectively assessed in cultured mouse (MS1) and human (MiaPaCa2 and HUVEC) cells. Cells were treated incubated for 5 days with the antibody drug conjugate before assessing cell viability on day 5.

For data set [2], the system named is MS1. The data set is described as above. It counts as cell-based, mouse. The note with it: free drug/linker payload, 5 days. As to the method: as §1, §2
The conditions of data set [3]: cited from earlier work.
For data set [4], the system named is MiaPaCa2. Nature of the data set: In vitro cell proliferation inhibition assay (Example 10). It counts as cell-based, human. The note with it: free drug/linker payload; 5 days. The procedure:
as §1, §2

Data set [5] concerns the target T1, human TM4SF1 (transmembrane-4 L six family member-1), on HUVEC cells (UniProt P30408 1-202).
T1 chain: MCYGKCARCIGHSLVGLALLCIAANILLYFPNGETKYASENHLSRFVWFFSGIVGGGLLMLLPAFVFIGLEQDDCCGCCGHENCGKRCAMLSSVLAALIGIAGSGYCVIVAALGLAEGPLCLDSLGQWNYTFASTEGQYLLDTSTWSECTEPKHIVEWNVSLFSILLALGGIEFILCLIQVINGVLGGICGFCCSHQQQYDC
Nature of the data set: flow cytometry, HUVEC. For orientation: A flow cytometer gives signals particle by particle.

Regarding `CC[C@@]1(O)C(=O)OCc2c1cc1n(c2=O)Cc2cc3ccccc3nc2-1` [payload 3, Camptothecin], the EC50 came to 1.89 nM in data set [1] (Homo sapiens, HUVEC, 120 h) and 34.3 nM in data set [2] (Mus musculus, MS-1, 120 h).

For Combretastatin [CA4P], the Overall survival in data set [3] (Phase II FALCON study, reduced from 16.2) is listed as 13.6 months. Moreover, in data set [3] (human, in vivo), the “Patients who experienced heart attacks while being treated” value is “seven”.

Regarding “Maleimide-ethylamino-nosyl-Ahx-Maytansine [payload 1]”, the EC50 in data set [1] amounted to 0.114 nM; in data set [4], 0.0395 nM.

On to “Maleimide-tetrazine-PEG3-methyl-EDA-nosyl-Camptothecin [payload 2]”, for which the EC50 in data set [1] was found to be 1450 nM; in data set [2], 6710 nM.

B1: AGX-A07 "YTEC" variant (anti-TM4SF1 antibody AGX-A07 with Fc mutations N297C, M252Y, S254T and T256E), naked antibody (antibody, V domains shown)
VH: QIQLVQSGPELKKPGETVKISCKASGYTFTNYGVKWVKQAPGKDLKWMGWINTYTGNPIYAADFKGRFAFSLETSASTAFLQINNLKNEDTATYFCVRFQYGDYRYFDVWGAGTTVTVSS
VL: QIILSQSPAILSASPGEKVTMTCRANSGISFINWYQQKPGSSPKPWIYGTANLASGVPARFGGSGSGTSYSLTISRVEAEDAATYYCQQWSSNPLTFGAGTKLELR
In turn, B1 had a half-maximal effective concentration (EC50) in data set [5] of 1.75 nM.
